Data: patent US7074789B2, “Kinase inhibitors” (Amgen Inc., priority 1999, dated 2006)

Tests used:
Format in all cases: biochemical
c-Met = biological target: T1, c-Met (Homo sapiens, UniProt P08581); experiment: Kinase inhibition assay (33P transfer), c-Met; conditions: Table 2, class symbols A-E; read-out: Met-1
T1 construct: Kinases are expressed as either kinase domains or full length constructs; made in house
Outline: (§1)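 Using immobilised substrate copolymers (poly(Glu,Tyr) 4:1; poly(Arg,Ser) 3:1) and [33P]ATP, purified fusion kinases were allowed to react; plates were then rinsed in 0.5% phosphoric acid and counted in a scintillation detector. Half-maximal inhibition of label transfer defines IC50.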

Zap-70 = biological target: T2, Zap-70 (Homo sapiens, UniProt P43403); experiment: Kinase inhibition assay (33P transfer), Zap-70; conditions: Table 3, class symbols; read-out: Zap-1
T2 construct: Kinases are expressed as either kinase domains or full length constructs; made in house
T2 sequence (P43403 1-619): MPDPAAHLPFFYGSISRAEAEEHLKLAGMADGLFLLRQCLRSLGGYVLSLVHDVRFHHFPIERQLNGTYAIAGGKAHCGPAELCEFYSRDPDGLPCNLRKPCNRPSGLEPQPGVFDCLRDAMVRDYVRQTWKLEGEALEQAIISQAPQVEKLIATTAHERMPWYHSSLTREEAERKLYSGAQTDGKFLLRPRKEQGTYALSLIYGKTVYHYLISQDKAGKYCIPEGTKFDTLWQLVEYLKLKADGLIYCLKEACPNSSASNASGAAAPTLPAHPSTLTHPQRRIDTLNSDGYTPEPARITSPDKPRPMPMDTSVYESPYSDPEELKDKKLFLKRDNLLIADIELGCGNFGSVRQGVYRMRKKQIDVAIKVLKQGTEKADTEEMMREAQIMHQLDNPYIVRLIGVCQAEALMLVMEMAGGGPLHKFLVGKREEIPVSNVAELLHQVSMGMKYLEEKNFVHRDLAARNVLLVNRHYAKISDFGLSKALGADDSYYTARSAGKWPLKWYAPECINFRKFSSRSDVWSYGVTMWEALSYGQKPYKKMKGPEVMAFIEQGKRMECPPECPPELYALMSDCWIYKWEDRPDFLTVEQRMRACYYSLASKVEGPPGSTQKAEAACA
Outline: (§2)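 33P-ATP transfer to coated synthetic polymer substrates; acid wash (0.5% H3PO4), scintillant, liquid scintillation count. Enzymes: His- or GST-fusion kinases from E. coli or High Five insect cells.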

Lck = biological target: T3, Lck (Homo sapiens, UniProt P06239); experiment: Kinase inhibition assay (33P transfer), Lck; conditions: Table 3, class symbols; read-out: Lck-1
T3 construct: Kinases are expressed as either kinase domains or full length constructs; made in house
T3 sequence (P06239 whole entry, species assumed, the tested form may be a part): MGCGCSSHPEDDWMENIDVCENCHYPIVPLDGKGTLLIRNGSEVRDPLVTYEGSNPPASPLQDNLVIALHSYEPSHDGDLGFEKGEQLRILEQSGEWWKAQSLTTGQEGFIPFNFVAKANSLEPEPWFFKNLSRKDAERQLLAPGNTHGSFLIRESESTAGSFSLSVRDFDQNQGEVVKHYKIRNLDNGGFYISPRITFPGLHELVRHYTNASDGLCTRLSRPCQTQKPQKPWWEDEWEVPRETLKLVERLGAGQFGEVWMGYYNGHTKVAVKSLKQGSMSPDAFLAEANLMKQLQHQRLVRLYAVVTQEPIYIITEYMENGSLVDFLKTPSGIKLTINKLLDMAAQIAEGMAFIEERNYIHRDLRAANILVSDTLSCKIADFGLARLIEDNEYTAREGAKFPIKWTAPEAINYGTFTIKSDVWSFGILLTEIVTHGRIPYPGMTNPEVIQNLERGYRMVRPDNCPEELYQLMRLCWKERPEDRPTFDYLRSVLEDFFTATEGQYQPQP
Outline: as §2

ErbB2 = biological target: T4, ErbB2 (Homo sapiens, UniProt P04626); experiment: Kinase inhibition assay (33P transfer), ErbB2; conditions: read-out: ErbB2-2
T4 construct: Kinases are expressed as either kinase domains or full length constructs; made in house
Outline: as §1

Itk = biological target: T5, Itk (Homo sapiens, UniProt Q08881); experiment: Kinase inhibition assay (33P transfer), Itk; conditions: Table 3, class symbols; read-out: Itk-1
T5 construct: Kinases are expressed as either kinase domains or full length constructs; made in house
T5 sequence (Q08881 1-620): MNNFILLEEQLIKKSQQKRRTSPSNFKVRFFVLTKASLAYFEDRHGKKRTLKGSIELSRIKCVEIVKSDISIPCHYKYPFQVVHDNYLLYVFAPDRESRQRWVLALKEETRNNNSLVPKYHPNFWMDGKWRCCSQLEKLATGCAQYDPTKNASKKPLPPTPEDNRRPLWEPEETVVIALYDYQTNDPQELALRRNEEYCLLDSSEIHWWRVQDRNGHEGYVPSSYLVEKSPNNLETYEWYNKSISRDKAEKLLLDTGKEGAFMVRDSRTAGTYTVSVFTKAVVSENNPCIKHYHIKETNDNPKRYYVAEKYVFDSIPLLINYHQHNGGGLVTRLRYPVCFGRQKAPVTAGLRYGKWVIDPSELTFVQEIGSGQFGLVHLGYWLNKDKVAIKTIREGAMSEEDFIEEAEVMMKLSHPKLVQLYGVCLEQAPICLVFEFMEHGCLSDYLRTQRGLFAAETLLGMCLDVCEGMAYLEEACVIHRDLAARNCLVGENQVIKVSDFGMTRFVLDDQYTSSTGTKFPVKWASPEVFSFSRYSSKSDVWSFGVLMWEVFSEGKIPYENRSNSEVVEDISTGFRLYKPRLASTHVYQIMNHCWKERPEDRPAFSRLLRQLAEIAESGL
Outline: as §1

Kdr = biological target: T6, Kdr (Homo sapiens, UniProt P35968); experiment: Kinase inhibition assay (33P transfer), Kdr; conditions: Table 3, class symbols; read-out: KDR-1
T6 construct: Kinases are expressed as either kinase domains or full length constructs; made in house
T6 sequence (P35968 20-1356, species assumed): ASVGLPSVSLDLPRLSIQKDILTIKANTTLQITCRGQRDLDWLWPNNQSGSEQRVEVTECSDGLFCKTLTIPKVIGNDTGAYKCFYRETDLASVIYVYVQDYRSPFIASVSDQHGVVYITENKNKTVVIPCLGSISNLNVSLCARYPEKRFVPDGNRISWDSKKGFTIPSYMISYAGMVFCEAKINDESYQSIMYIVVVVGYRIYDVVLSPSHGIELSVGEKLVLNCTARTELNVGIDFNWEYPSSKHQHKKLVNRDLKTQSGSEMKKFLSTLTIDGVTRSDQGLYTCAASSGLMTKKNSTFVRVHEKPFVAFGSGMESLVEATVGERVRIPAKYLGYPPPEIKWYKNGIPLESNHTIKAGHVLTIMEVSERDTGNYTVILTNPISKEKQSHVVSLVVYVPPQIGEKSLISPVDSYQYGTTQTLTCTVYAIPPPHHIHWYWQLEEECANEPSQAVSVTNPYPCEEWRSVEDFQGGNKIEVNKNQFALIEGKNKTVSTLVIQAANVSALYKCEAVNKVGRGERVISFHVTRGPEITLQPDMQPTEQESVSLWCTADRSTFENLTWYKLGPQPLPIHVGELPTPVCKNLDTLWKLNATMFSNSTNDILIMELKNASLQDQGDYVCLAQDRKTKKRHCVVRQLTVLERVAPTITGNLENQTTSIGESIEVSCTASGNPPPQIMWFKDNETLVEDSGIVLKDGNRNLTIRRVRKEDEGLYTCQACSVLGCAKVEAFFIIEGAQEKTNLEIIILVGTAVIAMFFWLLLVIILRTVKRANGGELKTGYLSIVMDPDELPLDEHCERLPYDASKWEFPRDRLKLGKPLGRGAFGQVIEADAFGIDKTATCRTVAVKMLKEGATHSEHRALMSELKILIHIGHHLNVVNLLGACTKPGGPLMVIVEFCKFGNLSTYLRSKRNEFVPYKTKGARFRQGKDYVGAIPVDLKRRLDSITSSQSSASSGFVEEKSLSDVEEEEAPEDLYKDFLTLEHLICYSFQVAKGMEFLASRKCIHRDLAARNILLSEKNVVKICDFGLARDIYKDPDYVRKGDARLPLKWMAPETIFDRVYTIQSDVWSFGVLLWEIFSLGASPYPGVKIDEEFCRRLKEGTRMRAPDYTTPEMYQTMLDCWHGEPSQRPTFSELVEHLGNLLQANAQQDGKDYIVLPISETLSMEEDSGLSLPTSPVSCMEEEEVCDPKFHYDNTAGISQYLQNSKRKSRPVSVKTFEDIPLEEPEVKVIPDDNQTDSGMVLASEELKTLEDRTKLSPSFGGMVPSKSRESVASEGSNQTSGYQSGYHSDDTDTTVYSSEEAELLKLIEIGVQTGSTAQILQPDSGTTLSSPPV
Outline: as §2

EGFR = biological target: T7, EGFR (Homo sapiens, UniProt P00533); experiment: Kinase inhibition assay (33P transfer), EGFR; conditions: Table 2, class symbols A-E; read-out: EGFR-1
T7 construct: Kinases are expressed as either kinase domains or full length constructs; made in house
T7 sequence (P00533 25-1210, species assumed): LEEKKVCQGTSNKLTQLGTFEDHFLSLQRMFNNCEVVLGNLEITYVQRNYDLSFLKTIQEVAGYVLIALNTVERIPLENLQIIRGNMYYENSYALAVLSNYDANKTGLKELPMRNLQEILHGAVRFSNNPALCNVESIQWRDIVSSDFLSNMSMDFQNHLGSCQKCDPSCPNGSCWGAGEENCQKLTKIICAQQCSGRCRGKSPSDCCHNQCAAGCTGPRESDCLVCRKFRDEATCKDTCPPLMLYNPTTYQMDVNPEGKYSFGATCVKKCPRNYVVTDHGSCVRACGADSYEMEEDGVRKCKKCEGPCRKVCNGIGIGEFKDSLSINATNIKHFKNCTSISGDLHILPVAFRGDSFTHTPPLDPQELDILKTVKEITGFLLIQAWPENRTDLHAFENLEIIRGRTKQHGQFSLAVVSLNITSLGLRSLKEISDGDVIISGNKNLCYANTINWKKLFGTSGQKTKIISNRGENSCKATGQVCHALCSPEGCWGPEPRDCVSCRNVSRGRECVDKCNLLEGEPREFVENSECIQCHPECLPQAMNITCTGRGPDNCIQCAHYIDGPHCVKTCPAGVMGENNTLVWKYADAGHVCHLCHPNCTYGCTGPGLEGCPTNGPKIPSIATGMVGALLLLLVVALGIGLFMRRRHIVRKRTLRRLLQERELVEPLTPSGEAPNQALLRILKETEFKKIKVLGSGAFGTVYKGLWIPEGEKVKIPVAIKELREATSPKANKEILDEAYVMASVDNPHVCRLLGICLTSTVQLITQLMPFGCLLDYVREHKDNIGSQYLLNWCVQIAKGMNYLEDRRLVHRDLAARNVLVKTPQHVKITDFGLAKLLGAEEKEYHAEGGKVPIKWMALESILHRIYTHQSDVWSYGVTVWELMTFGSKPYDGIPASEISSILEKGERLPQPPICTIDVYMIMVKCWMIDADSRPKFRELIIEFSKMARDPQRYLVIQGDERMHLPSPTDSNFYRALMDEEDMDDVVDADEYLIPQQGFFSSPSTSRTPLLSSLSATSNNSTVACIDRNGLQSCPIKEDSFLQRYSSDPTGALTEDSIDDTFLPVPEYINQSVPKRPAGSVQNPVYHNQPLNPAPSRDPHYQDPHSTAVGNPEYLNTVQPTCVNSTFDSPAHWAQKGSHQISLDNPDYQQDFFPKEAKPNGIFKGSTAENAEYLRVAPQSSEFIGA
Outline: as §1

AKT = biological target: T8, AKT (Homo sapiens, UniProt Q9Y243); experiment: Kinase inhibition assay (33P transfer), AKT; conditions: Table 2, class symbols A-E; read-out: AKT3-1
T8 construct: Kinases are expressed as either kinase domains or full length constructs; made in house
T8 sequence (Q9Y243 whole entry, the tested form may be a part): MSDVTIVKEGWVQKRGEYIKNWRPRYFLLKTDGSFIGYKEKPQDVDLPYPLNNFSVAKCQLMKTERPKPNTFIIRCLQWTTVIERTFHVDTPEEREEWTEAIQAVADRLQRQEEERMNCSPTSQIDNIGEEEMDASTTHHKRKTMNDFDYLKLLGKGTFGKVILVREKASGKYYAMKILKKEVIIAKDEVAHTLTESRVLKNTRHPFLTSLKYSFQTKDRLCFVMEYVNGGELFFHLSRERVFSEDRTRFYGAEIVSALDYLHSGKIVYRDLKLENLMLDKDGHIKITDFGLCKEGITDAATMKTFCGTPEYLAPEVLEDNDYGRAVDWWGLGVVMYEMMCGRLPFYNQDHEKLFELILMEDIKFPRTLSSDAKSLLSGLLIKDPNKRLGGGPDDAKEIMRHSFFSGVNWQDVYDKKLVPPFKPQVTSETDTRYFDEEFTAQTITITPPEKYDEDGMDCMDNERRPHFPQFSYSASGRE
Outline: as §2

IGFR-1 = biological target: T9, IGFR-1 (Homo sapiens, UniProt P08069); experiment: Kinase inhibition assay (33P transfer), IGFR-1; conditions: Table 2, class symbols A-E
T9 construct: Kinases are expressed as either kinase domains or full length constructs; made in house
T9 sequence (P08069 31-1367): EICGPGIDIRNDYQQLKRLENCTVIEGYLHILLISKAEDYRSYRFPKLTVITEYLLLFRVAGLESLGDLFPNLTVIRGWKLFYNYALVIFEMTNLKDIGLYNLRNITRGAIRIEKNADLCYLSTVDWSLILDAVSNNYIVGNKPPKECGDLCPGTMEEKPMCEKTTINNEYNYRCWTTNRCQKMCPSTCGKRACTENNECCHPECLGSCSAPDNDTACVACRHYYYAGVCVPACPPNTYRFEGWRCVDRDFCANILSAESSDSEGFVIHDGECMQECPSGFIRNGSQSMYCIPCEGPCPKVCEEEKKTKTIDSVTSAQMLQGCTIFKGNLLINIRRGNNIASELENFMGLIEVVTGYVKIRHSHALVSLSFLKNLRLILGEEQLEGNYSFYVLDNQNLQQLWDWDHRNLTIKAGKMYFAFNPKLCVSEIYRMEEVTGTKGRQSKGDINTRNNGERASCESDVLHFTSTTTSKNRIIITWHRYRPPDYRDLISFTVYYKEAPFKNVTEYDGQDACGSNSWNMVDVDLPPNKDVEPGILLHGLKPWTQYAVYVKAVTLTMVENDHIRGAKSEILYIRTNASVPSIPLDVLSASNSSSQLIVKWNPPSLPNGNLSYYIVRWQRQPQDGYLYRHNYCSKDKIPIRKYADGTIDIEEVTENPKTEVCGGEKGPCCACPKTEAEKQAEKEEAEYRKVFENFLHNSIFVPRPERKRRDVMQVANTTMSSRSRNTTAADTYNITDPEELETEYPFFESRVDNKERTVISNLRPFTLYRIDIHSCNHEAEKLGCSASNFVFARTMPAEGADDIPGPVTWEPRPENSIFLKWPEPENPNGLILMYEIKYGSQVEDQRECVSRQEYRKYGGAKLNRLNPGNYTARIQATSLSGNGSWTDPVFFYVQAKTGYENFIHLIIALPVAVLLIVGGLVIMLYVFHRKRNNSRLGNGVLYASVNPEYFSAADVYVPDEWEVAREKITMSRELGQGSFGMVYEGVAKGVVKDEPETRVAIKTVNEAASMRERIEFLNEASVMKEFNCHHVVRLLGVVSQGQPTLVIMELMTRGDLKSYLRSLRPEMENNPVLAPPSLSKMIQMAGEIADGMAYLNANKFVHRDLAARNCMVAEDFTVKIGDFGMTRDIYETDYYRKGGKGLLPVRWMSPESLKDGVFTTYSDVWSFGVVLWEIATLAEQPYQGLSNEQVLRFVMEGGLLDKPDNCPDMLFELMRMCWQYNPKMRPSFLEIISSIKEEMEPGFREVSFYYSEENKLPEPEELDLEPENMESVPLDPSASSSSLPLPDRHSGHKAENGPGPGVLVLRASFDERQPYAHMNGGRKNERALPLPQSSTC

PDGFRB = biological target: T10, PDGFRB (Homo sapiens, UniProt P09619); experiment: Kinase inhibition assay (33P transfer), PDGFRB; conditions: read-out: PDGFRB-1
T10 construct: Kinases are expressed as either kinase domains or full length constructs; made in house

| Compound | IC50 (c-Met) | IC50 (Zap-70) | IC50 (Lck) | IC50 (ErbB2) | IC50 (Itk) | IC50 (Kdr) | IC50 (EGFR) | IC50 (AKT) | IC50 (IGFR-1) | IC50 (PDGFRB) |
| --- | --- | --- | --- | --- | --- | --- | --- | --- | --- | --- |
| COc1cc(Nc2ncnc(-c3cccnc3Nc3ccccc3C)n2)cc(OC)c1OC [Compound 833] | > 10.1 µM | > 10.1 µM | < 0.9 µM | > 10.1 µM | > 10.1 µM | < 0.9 µM | > 10.1 µM | > 10.1 µM | > 10.1 µM | < 0.9 µM |
| Cc1ccc(-c2cc(Nc3ncnc(Nc4cc(C)ccc4C)n3)[nH]n2)cc1 [Compound 1125] | 1.08 to 6.46 µM | > 12.1 µM | < 1.08 µM | 1.08 to 6.46 µM | < 1.08 µM | 1.08 to 6.46 µM | < 1.08 µM | > 12.1 µM | < 1.08 µM | 1.08 to 6.46 µM |
| Fc1ccc(CNc2ncnc(Nc3cc(-c4ccco4)n[nH]3)n2)cc1 [Compound 996] | > 12.8 µM | > 12.8 µM | > 12.8 µM | > 12.8 µM | > 12.8 µM | > 12.8 µM | 9.96 to 12.8 µM | > 12.8 µM | 1.14 to 6.83 µM | > 12.8 µM |
| COC(=O)c1ccc(-c2cc(Nc3ncnc(NCCN4CCOCC4)n3)[nH]n2)cc1 [Compound 808] | > 10.6 µM | > 10.6 µM | > 10.6 µM | > 10.6 µM | > 10.6 µM | > 10.6 µM | 5.65 to 8.25 µM | > 10.6 µM | > 10.6 µM | 0.942 to 5.65 µM |
| Fc1ccc(CNc2ncccc2-c2ncnc(Nc3cccc(Cn4ccnn4)c3)n2)cc1 [Compound 1102] | > 9.92 µM | 7.72 to 9.92 µM | > 9.92 µM | > 9.92 µM | > 9.92 µM | < 0.882 µM | 5.29 to 7.72 µM | > 9.92 µM | > 9.92 µM | < 0.882 µM |
| c1coc(-c2cc(Nc3ncnc(Nc4ccc(-c5csnn5)cc4)n3)n[nH]2)c1 [Compound 891] | < 0.991 µM | 0.991 to 5.95 µM | 5.95 to 8.68 µM | < 0.991 µM | 0.991 to 5.95 µM | < 0.991 µM | 0.991 to 5.95 µM | 0.991 to 5.95 µM | < 0.991 µM | < 0.991 µM |
| COc1cccc(Nc2ncnc(Nc3ccc4c(cnn4Cc4ccccc4)c3)n2)c1 [Compound 904] | 0.945 to 5.67 µM | > 10.6 µM | 0.945 to 5.67 µM | 0.945 to 5.67 µM | 8.26 to 10.6 µM | 5.67 to 8.26 µM | < 0.945 µM | 8.26 to 10.6 µM | 5.67 to 8.26 µM | 0.945 to 5.67 µM |
| NC(=O)Cc1cccc(Nc2ncnc(Nc3cccc(Br)c3)n2)c1 [Compound 966] | > 11.3 µM | > 11.3 µM | 6.01 to 8.77 µM | > 11.3 µM | > 11.3 µM | 1 to 6.01 µM | < 1 µM | > 11.3 µM | < 1 µM | < 1 µM |
| COc1ccc(Nc2ncnc(N(C)CCc3ccccn3)n2)cc1OC [Compound 869] | 9.55 to 12.3 µM | > 12.3 µM | > 12.3 µM | 9.55 to 12.3 µM | 6.55 to 9.55 µM | 9.55 to 12.3 µM | 1.09 to 6.55 µM | > 12.3 µM | > 12.3 µM | 1.09 to 6.55 µM |
| COc1ccc(Nc2ncnc(N(C)c3ccccc3)n2)cc1OC [Compound 797] | 1.19 to 7.11 µM | > 13.3 µM | 1.19 to 7.11 µM | 1.19 to 7.11 µM | > 13.3 µM | 1.19 to 7.11 µM | < 1.19 µM | > 13.3 µM | 7.11 to 10.4 µM | 7.11 to 10.4 µM |
| COC(=O)c1ccc(-c2cc(Nc3ncnc(NCCc4ccc(OC)cc4)n3)[nH]n2)cc1 [Compound 817] | > 10.1 µM | > 10.1 µM | > 10.1 µM | 0.898 to 5.39 µM | > 10.1 µM | > 10.1 µM | > 10.1 µM | > 10.1 µM | > 10.1 µM | 0.898 to 5.39 µM |
| CN(c1cccc(Cl)c1)c1ncnc(Nc2cccc(Cn3ccnn3)c2)n1 [Compound 678] | < 1.02 µM | > 11.5 µM | 1.02 to 6.11 µM | < 1.02 µM | 1.02 to 6.11 µM | 1.02 to 6.11 µM | < 1.02 µM | > 11.5 µM | > 11.5 µM | < 1.02 µM |
| CN(c1cccc(Cl)c1)c1ncnc(Nc2ccc3nn(Cc4ccccc4)cc3c2)n1 [Compound 673] | 0.905 to 5.43 µM | 7.92 to 10.2 µM | 5.43 to 7.92 µM | 5.43 to 7.92 µM | > 10.2 µM | 5.43 to 7.92 µM | < 0.905 µM | > 10.2 µM | > 10.2 µM | 0.905 to 5.43 µM |
| COC(=O)c1ccc(-c2cc(Nc3ncnc(NCCNC(C)=O)n3)[nH]n2)cc1 [Compound 819] | > 11.4 µM | > 11.4 µM | > 11.4 µM | > 11.4 µM | > 11.4 µM | > 11.4 µM | > 11.4 µM | > 11.4 µM | > 11.4 µM | 1.01 to 6.05 µM |
